From patent US20260294871A1, “PHARMACEUTICAL COMBINATIONS AND COMPOSITIONS THEREOF COMPRISING ANTIBACTERIAL AGENTS” (priority 2023, published 2026)
Read-outs that look alike come from different tables or passages of the source.

Legend:
K. pneumoniae [1] = experiment: MIC by broth microdilution against Klebsiella; assay type: cell-based, Klebsiella pneumoniae
Experimental: (§1) In a typical study MIC tests were performed by broth microdilution in line with CLSI susceptibility testing standards. Bacterial inocula were prepared at ca. 1×10^6 CFU/mL by diluting 100-fold a 0.5 McFarland suspension in CA-MHB with TES. Microtiter plate wells containing 50 μL of antibacterial solutions at 2×the final concentrations were diluted 2-fold with 50 μL of inoculum to give a final inoculum of ca. 5×10^5 CFU/mL and desired test concentrations of antibacterial agents. Test microtiter plates were incubated according to CLSI guidelines and read visually. MIC values corresponded to the first well with no visible growth.
The results of antibacterial activity of amikacin, Ceftazidime-avibactam, Ceftriaxone with sulbactam and EDTA, Meropenem and Meropenem with avibactam and EDTA against highly resistant strains of Klebsiella (93. 3% Mem NS) are given in Table 4.

[2] = tested on: Non-Enterobacteriaceae (non-fermenter isolates); experiment: MIC by broth microdilution against Non-Enterobacteriaceae; assay type: cell-based
Experimental: as §1

[3] = tested on: Stenotrophomonas maltophilia; experiment: MIC by broth microdilution against Stenotrophomonas maltophilia; assay type: cell-based; conditions: highly resistant strains
Experimental: as §1
The results of antibacterial activity of amikacin, Ceftazidime-avibactam, Ceftriaxone with sulbactam and EDTA, Meropenem and Meropenem with avibactum and EDTA against highly resistant strains of Stenotrophomonas maltophilia are given in Table 8.

P. aeruginosa [4] = experiment: Frequency of Resistance (FOR) Study, P. aeruginosa; assay type: cell-based; further: key: TMTC: To more to count
Experimental: (§2) Objective: The in-vitro study was conducted to determine the frequency of resistance in 8 characterized isolates.
(§3) • Isolates: 8 isolates-E. coli (3), K. pneumoniae (2), A. baumannii (1) and P. aeruginosa (2) • Compound tested: Meropenem; Meropenem Avibactam (4); Meropenem EDTA (10 mM); Meropenem Avibactam (4) EDTA (10 mM) • Antibiotic Concentration used: […]

E. coli [5] = experiment: Frequency of Resistance (FOR) Study, E. coli; assay type: cell-based
Experimental: as §2, §3

Escherichia coli = experiment: MIC by broth microdilution against E. coli; assay type: cell-based
Experimental: as §1
The results of antibacterial activity of amikacin, Ceftazidime-avibactam, Ceftriaxone with sulbactam and EDTA, Meropenem and Meropenem with avibactam and EDTA against highly resistant strains of Escherichia coli are given in Table 3. […] There was a marked improvement in antibacterial activity, compared to MEM alone, observed for the triple combination MEM/AVI [4 mg/L]/EDTA [10 mM] with a MIC90 at 0.004 μg/mL

P. aeruginosa [6] = experiment: MIC by broth microdilution against P. aeruginosa; assay type: cell-based, Pseudomonas aeruginosa
Experimental: as §1
The results of antibacterial activity of amikacin, Ceftazidime-avibactam, Ceftriaxone with sulbactam and EDTA, Meropenem and Meropenem with avibactum and EDTA against highly resistant strains of P. aeruginosa are given in Table 5. As may be seen, the activity of the comparators was much lower although CRO/S4/E10 maximum MIC90 were much lower at ≤0.03 μg/mL.

K. pneumoniae [7] = experiment: Frequency of Resistance (FOR) Study, K. pneumoniae; assay type: cell-based
Experimental: as §2, §3

K. pneumoniae [8] = experiment: MIC of Time Kill Assay isolates, K. pneumoniae; assay type: cell-based; conditions: Klebsiella pneumoniae; TKA isolates
Experimental: Objective: The in-vitro Time Kill Assay study was conducted to determine the log reduction in 5 characterised MDR isolates.
• Isolates: 5 isolates-E. coli (3), K. pneumoniae (2) • Compound tested: Meropenem; Meropenem Avibactam (4); Meropenem EDTA (10 mM); Meropenem Avibactam (4) EDTA (10 mM) • 1 log—90% killing, 2 log 99% killing and 3 log 99.9% killing. Bactericidal: 3 log reduction (99.9% killing) • MIC: […]

Acinetobacter baumannii = experiment: MIC by broth microdilution against Acinetobacter baumannii; assay type: cell-based
Experimental: as §1
The results of antibacterial activity of amikacin, Ceftazidime-avibactam, Ceftriaxone with sulbactam and EDTA, Meropenem and Meropenem with avibactum and EDTA against highly resistant strains of Acinetobacter baumannii are given in Table 7.

A. baumannii = experiment: Frequency of Resistance (FOR) Study, A. baumannii; further: key: TMTC: To more to count; assay type: cell-based; conditions: strain 8 - A. baumannii
Experimental: as §2, §3

E. coli [9] = conditions: cited from earlier work

C[C@@H](O)[C@H]1C(=O)N2C(C(=O)O)=C(S[C@@H]3CN[C@H](C(=O)N(C)C)C3)[C@H](C)[C@H]12 [Meropenem, (4R,5S,6S)-3-(((3S,5S)-5-(dimethylcarbamoyl)pyrrolidin-3-yl)thio)-6-((R)-1-hydroxyethyl)-4-methyl-7-oxo-1-azabicyclo[3.2.0]hept-2-ene-2-carboxylic acid]
MIC50 (K. pneumoniae [1]; Klebsiella pneumoniae, MEM-NS isolates (n=112), read-out: MIC50): > 32 µg/mL | MIC90 (K. pneumoniae [1]; Klebsiella pneumoniae, highly resistant strains, read-out: MIC90): > 32 µg/mL | MIC90 (K. pneumoniae [1]; MEM-NS isolates (n=112)): > 32 µg/mL | MIC50 (K. pneumoniae [1]; highly resistant strains): >32 µg/mL | MIC90 (K. pneumoniae [1]; highly resistant strains): >32 µg/mL | MEM-NS isolates (K. pneumoniae [1]; n=112, listed as MEM): 93.3% | MIC50 [2]: > 32 µg/mL | MIC90 [2]: > 32 µg/mL | MIC50 ([2]; highly resistant strains): >32 µg/mL | MIC90 ([2]; highly resistant strains): >32 µg/mL | MIC90 ([2]; highly resistant strains, listed as MEM): > 32 µg/mL | MEM-NS isolates ([2]; n=284): 88.9% | MIC50 ([3]; Stenotrophomonas maltophilia, read-out: MIC50): > 32 µg/mL | MIC90 ([3]; Stenotrophomonas maltophilia, read-out: MIC90): > 32 µg/mL | MIC50 [3]: >32 µg/mL | MIC90 [3]: >32 µg/mL | count, 24 H of Incubation (P. aeruginosa [4]; strain 2 - P. aeruginosa, ATB concentration 4x): TMTC | count, 24 H of Incubation (P. aeruginosa [4]; strain 2 - P. aeruginosa, ATB concentration 8x): TMTC | count, 24 H of Incubation (P. aeruginosa [4]; strain 2 - P. aeruginosa, ATB concentration 16x): TMTC | count, 24 H of Incubation (P. aeruginosa [4]; strain 3 - P. aeruginosa, ATB concentration 4x): TMTC | count, 24 H of Incubation (P. aeruginosa [4]; strain 3 - P. aeruginosa, ATB concentration 8x): TMTC | count, 24 H of Incubation (P. aeruginosa [4]; strain 3 - P. aeruginosa, ATB concentration 16x): TMTC | count, 24 H of Incubation (E. coli [5]; strain 1 - E. coli, ATB concentration 4x): 0 | count, 24 H of Incubation (E. coli [5]; strain 1 - E. coli, ATB concentration 8x): 0 | count, 24 H of Incubation (E. coli [5]; strain 1 - E. coli, ATB concentration 16x): 0 | count, 24 H of Incubation (E. coli [5]; strain 4 - E. coli, ATB concentration 4x): TMTC | count, 24 H of Incubation (E. coli [5]; strain 4 - E. coli, ATB concentration 8x): TMTC | count, 24 H of Incubation (E. coli [5]; strain 4 - E. coli, ATB concentration 16x): TMTC | count, 24 H of Incubation (E. coli [5]; strain 5 - E. coli, ATB concentration 4x): 0 | count, 24 H of Incubation (E. coli [5]; strain 5 - E. coli, ATB concentration 8x): 0 | count, 24 H of Incubation (E. coli [5]; strain 5 - E. coli, ATB concentration 16x): 0 | MIC50 (Escherichia coli; Escherichia coli, highly resistant strains, read-out: MIC50): > 32 µg/mL | MIC90 (Escherichia coli; Escherichia coli, highly resistant strains, read-out: MIC90): > 32 µg/mL | MIC50 (Escherichia coli; MEM-NS isolates (n=105)): > 32 µg/mL | MIC90 (Escherichia coli; MEM-NS isolates (n=105)): > 32 µg/mL | MIC50 (Escherichia coli; highly resistant strains): >32 µg/mL | MIC90 (Escherichia coli; highly resistant strains): >32 µg/mL | MEM-NS isolates (Escherichia coli; n=105): 88.2% | MIC90 (P. aeruginosa [6]; MEM-NS isolates (n=120)): > 32 µg/mL | MIC50 (P. aeruginosa [6]; Pseudomonas aeruginosa, highly resistant strains): > 32 µg/mL | MIC90 (P. aeruginosa [6]; Pseudomonas aeruginosa, highly resistant strains, read-out: MIC90): > 32 µg/mL | MIC90 (P. aeruginosa [6]; highly resistant strains): >32 µg/mL | MEM-NS isolates (P. aeruginosa [6]; n=120): 92.7% | count, 24 H of Incubation (K. pneumoniae [7]; strain 6 - K. pneumoniae, ATB concentration 4x): TMTC | count, 24 H of Incubation (K. pneumoniae [7]; strain 6 - K. pneumoniae, ATB concentration 8x): 303 | count, 24 H of Incubation (K. pneumoniae [7]; strain 6 - K. pneumoniae, ATB concentration 16x): 0 | count, 24 H of Incubation (K. pneumoniae [7]; strain 7 - K. pneumoniae, ATB concentration 4x): TMTC | count, 24 H of Incubation (K. pneumoniae [7]; strain 7 - K. pneumoniae, ATB concentration 8x): TMTC | count, 24 H of Incubation (K. pneumoniae [7]; strain 7 - K. pneumoniae, ATB concentration 16x): TMTC | MIC (K. pneumoniae [8]): > 32 µg/mL | MIC90 (Acinetobacter baumannii; Acinetobacter baumannii): > 32 µg/mL | MIC50 (Acinetobacter baumannii; Acinetobacter baumannii, highly resistant strains): > 32 µg/mL | MIC90 (Acinetobacter baumannii; MEM-NS isolates (n=163)): > 32 µg/mL | MIC90 (Acinetobacter baumannii; highly resistant strains): >32 µg/mL | MEM-NS isolates (Acinetobacter baumannii; n=163): 98.2% | count, 24 H of Incubation (A. baumannii; ATB concentration 4x): TMTC | count, 24 H of Incubation (A. baumannii; ATB concentration 8x): TMTC | count, 24 H of Incubation (A. baumannii; ATB concentration 16x): TMTC | CLSI Range of MIC (E. coli [9]): 0.008 to 0.06 µg/mL
